From PubChem BioAssay (NCI)
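Dose response: 5 concentrations. Exposure: 48 h. Format: 96-well plates. Endpoint: linear interpolation; highest concentration if not reached. GI50 is the concentration that inhibits growth by half. TGI marks complete inhibition of growth.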 Starred links: 1 amine or outer side, 2 acyl side, 3 side chain; linkers in the order of their positions; H or OH if unused. Positions of bridges follow the written chain, without caps; N, C: chain ends. Non-standard residues stand in square brackets, D forms with d. Residues, ends and D or L forms follow the SMILES beside them. Chains are numbered I, II in the order given. Actinocin(1to9) = Cc1c2oc3c(C)ccc(C(=O)[*:2])c3nc-2c(C(=O)[*:1])c(N)c1=O; NMeV = CN[CH](C(=O)O)C(C)C; Sar = CNCC(=O)O

Assays:
Test in all cases: DTP human tumour cell line panel, 48 h
SW-620 colon = test system: SW-620 colon
MCF7 breast = test system: MCF7 breast
UACC-62 melanoma = test system: UACC-62 melanoma
HCT-116 colon = test system: HCT-116 colon
NCI-H522 lung = test system: NCI-H522 lung
DMS 273 small cell lung = test system: DMS 273 small cell lung
DMS 114 small cell lung = test system: DMS 114 small cell lung
XF 498 CNS = test system: XF 498 CNS
HCC-2998 colon = test system: HCC-2998 colon
SNB-78 CNS = test system: SNB-78 CNS
LXFL 529 NSCLC = test system: LXFL 529 NSCLC
M19-MEL melanoma = test system: M19-MEL melanoma
KM20L2 colon = test system: KM20L2 colon
HOP-18 NSCLC = test system: HOP-18 NSCLC
DLD-1 colon = test system: DLD-1 colon

Row | SMILES | TGI (SW-620 colon) [µM] | TGI (MCF7 breast) [µM] | TGI (UACC-62 melanoma) [µM] | TGI (HCT-116 colon) [µM] | TGI (NCI-H522 lung) [µM] | TGI (HCC-2998 colon) [µM] | further results
1 | c1ccc(-c2nnn3c2NC2=C(CCCC2)C3c2ccccc2)cc1 (centres undefined) | 28.9 | 51.9 | 33.7 | 24.3 | 19.9 | – | –
2 | CCOC(=O)C(/C(=N/S(=O)(=O)c1cc(C)c(Cl)cc1[S-])[n+]1ccc(N(C)C)cc1)=C(/O)c1ccc([N+](=O)[O-])cc1 | – | > 100 | > 100 | 36.7 | 34.6 | – | –
3 | N#CC12Cc3cc4c(cc3-c3cccc(c31)CCN2C(=O)c1ccccc1)OCO4 (centres undefined) | > 100 | – | > 100 | > 100 | – | > 100 | TGI (DMS 273 small cell lung): > 100 µM; TGI (DMS 114 small cell lung): > 100 µM; TGI (XF 498 CNS): > 100 µM; TGI (SNB-78 CNS): > 100 µM; TGI (LXFL 529 NSCLC): > 100 µM; TGI (M19-MEL melanoma): > 100 µM; TGI (KM20L2 colon): > 100 µM; TGI (HOP-18 NSCLC): > 100 µM; TGI (DLD-1 colon): > 100 µM
4 | O=C(O)c1ccc(C(=O)c2ccccc2C(=O)O)cc1C(=O)O | > 100 | > 100 | > 100 | > 100 | > 100 | > 100 | –
5 | OC(c1ccccc1)(c1ccccc1)c1nccc2ccccc12 | – | > 100 | > 100 | 97 | 40.8 | – | –
6 | Nc1c(C(=O)O)nnc2cc(Cl)c(Cl)cc12 | > 100 | > 100 | > 100 | > 100 | > 100 | > 100 | –
7 | COc1ccc(C(=O)C2=NON3OC23C(=O)c2ccc(OC)cc2)cc1 (centres undefined) | 11.4 | – | 37 | 19.6 | 3.68 | 32.8 | TGI (DMS 273 small cell lung): 36.4 µM; TGI (DMS 114 small cell lung): 11.1 µM; TGI (XF 498 CNS): 23.9 µM; TGI (SNB-78 CNS): 42.3 µM; TGI (LXFL 529 NSCLC): 6.68 µM; TGI (M19-MEL melanoma): 32.8 µM; TGI (KM20L2 colon): 35.5 µM; TGI (HOP-18 NSCLC): 33.7 µM; TGI (DLD-1 colon): 21.5 µM
8 | Cc1ccccc1N=Nc1c(O)c(S(=O)(=O)O)cc2cc(S(=O)(=O)O)ccc12 | > 100 | > 100 | > 100 | > 100 | > 100 | > 100 | –
9 | CN(C)c1ccc(C=Nc2ccc(Oc3ccc(Cl)cc3)c(Cl)c2)cc1 | > 100 | > 100 | 36.1 | 34.5 | 31.4 | 38.9 | –
10 | COCC1CCCN1c1ccc(C=N/C(C#N)=C(\N)C#N)cc1 (centres undefined) | > 100 | > 100 | – | > 100 | 56.2 | > 100 | GI50 (SW-620 colon): > 100 µM; GI50 (MCF7 breast): 33.4 µM; GI50 (HCT-116 colon): 9.19 µM; GI50 (HCC-2998 colon): > 100 µM; GI50 (NCI-H522 lung): 15.8 µM
11 | Cc1coc2c1C[C@@]1(C)[C@H](CCC[C@@H]1C)[C@H]2O | > 100 | 95.7 | > 100 | > 100 | 90.5 | > 100 | –
12 | CC(C)(C)OC(=O)n1c2ccccc2c2c(=O)nc(N3CCCCC3)sc21 | > 100 | – | > 100 | – | > 100 | – | –
13 | O=c1ccc2nc3cc(Br)ccc3sc-2c1 | > 100 | – | > 100 | > 100 | > 100 | > 100 | TGI (DMS 273 small cell lung): > 100 µM; TGI (DMS 114 small cell lung): > 100 µM; TGI (SNB-78 CNS): > 100 µM; TGI (LXFL 529 NSCLC): > 100 µM; TGI (M19-MEL melanoma): > 100 µM; TGI (KM20L2 colon): > 100 µM; TGI (DLD-1 colon): > 100 µM
14 | CC(=O)OC1CC[C@@]2(C)C(=CC[C@@H]3[C@@H]2CC[C@]2(C)Nc4nn(S(C)(=O)=O)cc4C[C@@H]32)C1 (some centres undefined) | – | 40.7 | 50.2 | – | > 100 | > 100 | –
15 | COc1nc2[nH]ccc2c(=O)[nH]1 | > 100 | – | – | > 100 | – | > 100 | TGI (DMS 114 small cell lung): > 100 µM; TGI (SNB-78 CNS): > 100 µM; TGI (LXFL 529 NSCLC): > 100 µM; TGI (KM20L2 colon): > 100 µM; TGI (HOP-18 NSCLC): > 100 µM; TGI (DLD-1 colon): > 100 µM
16 | C[N+]1(CCC(=O)c2ccco2)CC2CCC(CC2)C1 (centres undefined) | > 100 | > 100 | > 100 | > 100 | > 100 | – | –
17 | Cn1cnc([N+](=O)[O-])c1Sc1nc(N)nc2c1ncn2C1OC(CO)C(O)C1O (centres undefined) | > 100 | – | 22.7 | > 52.2 | 33.5 | 15.3 | TGI (DMS 273 small cell lung): > 100 µM; TGI (DMS 114 small cell lung): > 100 µM; TGI (XF 498 CNS): > 100 µM; TGI (SNB-78 CNS): > 100 µM; TGI (LXFL 529 NSCLC): > 100 µM; TGI (M19-MEL melanoma): > 100 µM; TGI (KM20L2 colon): 28.8 µM; TGI (HOP-18 NSCLC): > 100 µM; TGI (DLD-1 colon): > 100 µM
18 | COCCNCc1ccc(-c2cc3nccc(Oc4ccc(NC(=S)NC(=O)Cc5ccc(F)cc5)cc4F)c3s2)nc1 | – | – | – | – | 6.5 | 26.9 | GI50 (HCC-2998 colon): 4.68 µM; GI50 (NCI-H522 lung): 2.51 µM
19 | CC(C)(C)OC(=O)NC(CCCCNC(=O)OCc1ccccc1)C(=O)NCCNc1ccc(NCCNC(=O)C(CCCCNC(=O)OCc2ccccc2)NC(=O)OC(C)(C)C)c2c1C(=O)c1ccccc1C2=O (centres undefined) | > 100 | 27.2 | > 100 | > 75.1 | 93.3 | > 100 | –
20 | OCc1cn(C(c2ccccc2)(c2ccccc2)c2ccccc2)cn1 | > 100 | – | – | > 100 | > 100 | > 100 | –
21 | O=c1[nH]c(Nc2ccc(Cl)c(C(F)(F)F)c2)nc2nc[nH]c12 | > 100 | > 100 | > 100 | > 100 | 34.3 | 57.4 | –
22 | Clc1ccccc1/C=c1\nc(-c2ccccc2)n2c1nc1ccccc12 | > 100 | > 100 | > 100 | > 100 | – | – | –
23 | Cn1c(=O)[nH]c2nncnc2c1=O | > 625 | > 501 | 146 | 219 | > 516 | > 442 | TGI (DMS 273 small cell lung): 106 µM; TGI (DMS 114 small cell lung): 345 µM; TGI (XF 498 CNS): 245 µM; TGI (SNB-78 CNS): > 625 µM; TGI (M19-MEL melanoma): 115 µM; TGI (KM20L2 colon): > 306 µM; TGI (HOP-18 NSCLC): 61.1 µM; TGI (DLD-1 colon): > 625 µM
24 | Nc1ncnc2c1sc1nc3ccccc3n12 | > 100 | > 100 | > 100 | – | > 95.8 | > 100 | –
25 | CCC(C)C1NC(=O)C(NC(=O)c2c3nc4c(C(=O)NC5C(=O)NC(C(C)CC)C(=O)N6CCCC6C(=O)N(C)CC(=O)N(C)C(C(C)C)C(=O)OC5C)ccc(C)c4oc-3c(C)c(=O)c2N)C(C)OC(=O)C(C(C)C)N(C)C(=O)CN(C)C(=O)C2CCCN2C1=O (centres undefined) (I: TIP[Sar][NMeV] / II: TIP[Sar][NMeV]; ester I:1-I:C, II:1-II:C; linker I:N-II:N via Actinocin(1to9); configuration not given here) | 0.0776 | – | 0.0105 | – | 0.00176 | 0.0364 | –
